Entries after “also recorded” stand apart in the source; their conditions may differ. Values belong to the molecule of their own block, whether it stands above or below them.
Assays:
DA and DA.E3chr12 rats = settings: PIA
Description: Arthritic development was monitored in all limbs using a macroscopic scoring system. Briefly, 1 point was given for each swollen or red toe, 1 point for each swollen midfoot, digit, or knuckle, and 5 points for a swollen ankle. The maximum score for a limb was 15 points, and the maximum score for a rat was 60 points.
For administration, 50 mg of DPI was dissolved in 250 mL DMSO/PBS. About 0.5 mL was injected intraperitoneally into rats on day 0, 2, 3, 4, 5, 6, 7, 8, 10, 12, 14, 17, 19, and 21.
Arthritis development was monitored in all limbs.

mice = settings: daily intraperitoneal 2.8 μmol/kg (880 μg/kg); cited from earlier work
NADPH complex [1] = experiment: Oxygen burst studies, activation of NADPH complex (cell type not stated); format: cell-based; settings: oxygen burst studies / WST-1 assay
Description: (§1) The unsaturated fatty acids C14:1-C24:1 (myristoleic acid, palmitoleic acid, oleic acid, linoleic acid, linolenic acid, 11c-eicosenoic acid, arachidonic acid, erucic acid, and neuronic acid) and squalenee (Sigma) were also tested.
(§2) 10 μL of each of the oils to be tested was added with 9 μL of WST1 to the wells of a 96 well microtitre plate. 10^6 cells/mL (100 μL of 10^7 cells/mL) were added to each well and the color change measured in a spectrophotometer at 450 nm at 37° for 60 minutes (one measurement/min).
10 μL each of the oils to be tested were added to the wells of a 96 well microtitre plate. 50 μL of cytochrome C (4 mg/mL) and […] (50 μL of 10^7 cells/mL) were added to each well and the absorbance measured in a spectrophotometer at 550 nm at 37° C. for 60 minutes (one measurement/minute).

DA rats [2] = experiment: Arthritis-inducing effect of oils injected intradermally at the base of the tail; format: in vivo, Rat (Rattus norvegicus); settings: oil injected intradermally at base of tail, scored days 12-31, FIG. 10
Description: The arthritis-inducing effects of the oils was examined by injecting the oils intradermally into DA rats. […] Note that p<0.05 for alkanes shorter than C15 compared to C19. All statistics evaluated with student's t-test. N=4 for all groups.

DA rats [3] = experiment: Treatment of hexadecane-induced arthritis with hexadecene; format: in vivo, Rat (Rattus norvegicus); settings: rat, in vivo
Description: Groups of DA rats were injected i.d. at the base of the tail as follows: • Hexadecane 200 μL day 0; • Hexadecene 200 μL day 0; • Hexadecene 200 μL day −5, Hexadecane 200 μL day 0; • Olive oil 200 μL day −5, Hexadecane 200 μL day 0; • Hexadecene 200 μL day +5, Hexadecane 200 μL day 0; and • Olive oil day 200 μL +5, Hexadecane 200 μL day 0.
The rats were scored as indicated above. Olive oil was used as a control.

[4] = In vivo distribution of 14C-labeled oils; set-up: species or system Rat (Rattus norvegicus); settings: for arthritis in rats treated with radioactively-labeled oils: 200 μL i.d. at base of tail, DA rats, FIG. 13; for extent of distribution to the lymph nodes: hexadecane compared with oleic acid
Description: [1-14C]-Hexadecane and [1-14C]-Oleic acid were purchased from Amersham. The oils were injected intradermally at the base of the tail in 18 DA rats (200 μL). At day 10, the organs (lymph nodes, spleen, liver and kidney) of three rats from each group were collected. The organs were weighed and homogenized in a total volume of 2 mL PBS and frozen. The same procedure was followed at day 20 and at day 30. 1 mL of the homogenised samples was then added to 10 mL Ready Safe (Beckman) and counted in a beta counter. The distribution of radioactive labelled hexadecane to the lymph nodes was also inspected at earlier time points (day 3, day 6, day 10, and day 13).

[5] = in vivo; cited from earlier work
[6] = in vivo; cited from earlier work; remark: listed apart in the source
DA rats [7] = experiment: Treatment of experimental allergic encephalomyelitis (EAE) with phytol; format: in vivo, Rat (Rattus norvegicus); settings: 200 μL phytol at day -10 and day +5; olive oil control; p<0.05; FIG. 16
Description: Groups of DA rats were injected at the base of the tail with 200 μL phytol at day -10, day -5, and day +5. Olive oil was used as a control. At day 0, all rats were treated (immunized) with 200 μL SCH (DA spinal cord homogenate, to induce EAE) i.d. at the base of the tail. The rats were then scored according to the following scale for 40 days: • 0=Normal • 1=Tail weakness • 2=Tail paralysis • 3=Tail paralysis and mild […] • 4=Tail paralysis and severe […] • 5=Tail paralysis and paralysis of one limb • 6=Tail paralysis and paralysis of a pair of limbs • 7=Tetra-paresis • 8=Pre-morbid or dead.

DA rats [8] = experiment: Route of administration of phytol in treatment of PIA; format: in vivo, Rat (Rattus norvegicus); settings: FIG. 17
Description: Groups of DA rats were treated with phytol according to one of the following treatment regimens at day −5 and at day +5. All rats were injected with […] (200 μL) at day 0 intradermally at the base of the tail. Phytol was administered to groups of rats as follows: • 25 μL phytol intranasally (i.n.); • 200 μL phytol intraperitoneally (i.p.); • 200 μL phytol intradermally at the base of the tail (i.d.); and • 1 mL phytol per os (p.o.).
The rats were scored from day 9 using the extended scoring system (as discussed previously).

DA rats [9] = experiment: Collagen induced arthritis (CIA) in rats treated with phytol; format: in vivo, Rat (Rattus norvegicus); settings: FIG. 22
Description: DA rats were treated according to one of the following alternatives: (1) 200 μL phytol intra-dermal at the base of the tail at day −10; (2) 200 μL phytol intra-dermal at the base of the tail at day −5; (3) 200 μL phytol intra-peritoneal at day −5 and day +5; or (4) control untreated. CIA was induced in all animals at day 0 by injecting […] of collagen II dissolved in 75 μL 0.1 M Acetic acid and emulsified in 75 μL IFA. The rats were scored from day 10 using the extended scoring system (see above).

DA rats [10] = experiment: Treatment of active PIA with phytol or undecane; format: in vivo, Rat (Rattus norvegicus); settings: 200 μL i.p. or i.d. at day 21 and day 26; FIG. 23
Description: Groups of DA rats were injected with […] at day 0. The […] (150 μL) was injected intra-dermal at the base of the tail. The rats were scored from day 9 using the extended scoring system (see above). Then, the rats were treated at day 21 and at day 26 with one of the following alternatives: (1) 200 μL phytol intra-peritoneal; (2) 200 μL phytol intra-dermal at the base of the tail; (3) 200 μL undecane intra-peritoneal; (4) 200 μL undecane intra-dermal at the base of the tail; or (5) control untreated.

NADPH complex [11] = experiment: Oxidative burst WST-1 assay, E3 rat peritoneal cells; format: cell-based; settings: peritoneal cells from E3 rat after thioglycolate; FIG. 9A
Description: as §1, with “tested. The oils were solubilized by dilution in cyclodextrin (100 mM in PBS).” for “tested.”
5 mL thioglycolate (2.4%) was injected intraperitoneally in E3 rats to elicit recruitment of neutrophils 16 hours before sacrifice. 40 mL PBS+hepes (1%) was injected into the peritoneum and the cell suspension extracted. Red blood cells were lysed with 0.84% NH4Cl, and WBC were washed in PBS and resuspended in PBS at a concentration of about 10^7 cells/mL.
as §2

NADPH complex [12] = target: T1, NADPH complex (Homo sapiens, UniProt P14598); experiment: Oxidative burst WST-1 assay, HL60 cells; format: cell-based; settings: FIG. 9B
T1 construct: endogenous in cells; host or cells: HL60 cells differentiated with 1.25% DMSO
T1 sequence (P14598 1-390): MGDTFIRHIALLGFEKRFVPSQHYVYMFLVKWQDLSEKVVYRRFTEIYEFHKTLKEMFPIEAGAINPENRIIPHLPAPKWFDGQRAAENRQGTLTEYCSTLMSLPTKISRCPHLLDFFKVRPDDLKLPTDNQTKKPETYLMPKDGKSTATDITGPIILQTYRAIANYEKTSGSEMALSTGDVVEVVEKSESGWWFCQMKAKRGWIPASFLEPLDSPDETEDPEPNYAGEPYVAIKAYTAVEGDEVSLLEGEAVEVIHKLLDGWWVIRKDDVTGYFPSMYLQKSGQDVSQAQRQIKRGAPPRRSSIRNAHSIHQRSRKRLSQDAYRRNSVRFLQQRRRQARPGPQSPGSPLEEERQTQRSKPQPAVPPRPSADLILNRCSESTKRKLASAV
Description: The unsaturated fatty acids C14:1-C24:1 (myristoleic acid, palmitoleic acid, oleic acid, linoleic acid, linolenic acid, 11c-eicosenoic acid, arachidonic acid, erucic acid, and neuronic acid) and squalenee (Sigma) were also tested. The oils were solubilized by dilution in cyclodextrin (100 mM in PBS). Human […] cell line HL60 was cultured in Dulbeccos complete medium with Hepes, 10% Fetal calf serum, and Penicillin-Streptomycin. HL60 cells differentiated to neutrophil-macrophages six days after addition of 1.25% DMSO. The cells were spun down at 1200 rpm for 5 minutes and then washed with PBS twice. The cells were then resuspended in PBS to a concentration of about 10^7 cells/mL. 10 μL of each of the oils to be tested was added with 9 μL of WST1 to the wells of a 96 well microtitre plate. 10^6 cells/mL (100 μL of 10^7 cells/mL) were added to each well and the color change measured in a spectrophotometer at 450 nm at 37° for 60 minutes (one measurement/min).

DA rats [13] = experiment: Treatment/prevention of pristane-induced arthritis with undecane; format: in vivo, Rat (Rattus norvegicus)
Description: Groups of DA rats were injected intradermally at the base of the tail with 200 μL of the oils as indicated below: • Undecane day −10, […] day 0; • Olive oil day −10, […] day 0; • Undecane day −5, […] day 0; • Undecanol day −5, […] day 0; Olive oil day −5, […] day 0; • Undecane day 5, […] day 0; and • Olive oil day 5, […] day 0.
The rats were scored every other day starting at day 11 according to the extended scoring system where every red or swollen toe or mid foot scored one point, and a red and swollen ankle scored five points, yielding a total of 15 points/limb and 60 points/rat. Olive oil and undecanol were used as controls.

SMILES: c1ccc2c(c1)[I+]c1ccccc1-2 [DPI, diphenyleneiodonium chloride]
severity of arthritis (DA and DA.E3chr12 rats; DPI 1.25 μmol/kg i.p. on days 0-21, FIG. 6): increased severity of arthritis
accumulated arthritis scores (DA and DA.E3chr12 rats; DPI-treated vs control rats, FIG. 7): greater accumulated arthritis scores than control rats
reduction of arthritis (mice): 50%

arthritis induction (DA rats [2]): did induce arthritis
SMILES: CCCCCCCCCCCCCCC [Pentadecane, pentadecane]
activation of the NADPH complex (NADPH complex [1]): did not activate the NADPH complex

arthritis induction (DA rats [2]): induce arthritis
SMILES: CCCCCCCCCCCCCCCCC [heptadecane]
activation of the NADPH complex (NADPH complex [1]): activate the NADPH complex

arthritis induction (DA rats [2]): induced arthritis
arthritis-inducing capacity (DA rats [3]): induces arthritis
time of maximum accumulation in the lymph nodes ([4]; FIG. 15): 10 days
extent of distribution to the lymph nodes [4]: higher extent than oleic acid
SMILES: CCCCCCCCCCCCCCCC [hexadecane]
activation of the NADPH complex (NADPH complex [1]): activated the complex
arthritis in rats treated with radioactively-labeled oils [4]: only the rats injected with hexadecane had arthritis
time course of accumulation in the lymph nodes ([4]; days 3, 6, 10, 13 and later, FIG. 15): increase in the accumulation of hexadecane in the lymph nodes until day 10; also recorded: slowly decreased
distribution of 14C-labeled hexadecane [5]: disseminated predominantly to the lymph nodes
arthritis induction [6]: induce arthritis

arthritis induction (DA rats [2]): induce arthritis
SMILES: CCCCCCCCCCCCCCCCCC [octadecane]
activation of the NADPH complex (NADPH complex [1]): activate the NADPH complex

arthritis in rats treated with radioactively-labeled oils [4]: does not induce arthritis
SMILES: CCCCCCCC/C=C\CCCCCCCC(=O)O [oleic acid]
extent of distribution to the lymph nodes [4]: not distributed to the lymph nodes to as high an extent as the hexadecane

SMILES: C/C(=C\CO)CCC[C@H](C)CCC[C@H](C)CCCC(C)C [phytol]
additive score and maximum score of EAE, phytol vs control rats (DA rats [7]): significant difference
effect on PIA (DA rats [8]; 25 μL phytol i.n. day -5 and day +5): ameliorative and preventive effects
effect on PIA (DA rats [8]; 200 μL phytol i.d. day -5 and day +5): ameliorating and preventive effect
effect on PIA (DA rats [8]; 200 μL phytol i.p. day -5 and day +5): ameliorative and preventive effects
development of arthritis in CIA rat model (DA rats [9]; 200 μL phytol intra-dermal day -10 or day -5): prevented development of arthritis
development of arthritis in CIA rat model (DA rats [9]; 200 μL phytol intra-peritoneal day -5 and day +5): prevented development of arthritis
effect on active arthritis in PIA rat model (DA rats [10]): effective against active arthritis
arthritis induction [6]: do not

SMILES: CCCCCCCCCCC [undecane]
activation of the oxidative burst (WST-1 assay) (NADPH complex [11]): potent activator
activation of the oxidative burst (WST-1 assay) (NADPH complex [12]): potent activator
activation of the NADPH complex (NADPH complex [1]): activated the NADPH complex
arthritis induction (DA rats [2]): did not induce arthritis
additive score and maximum score of PIA, undecane vs olive oil (DA rats [13]; 200 μL i.d. day -5, pristane day 0, p<0.05, FIG. 11B, 11C): significant difference
additive score and maximum score of PIA, undecane vs undecanol (DA rats [13]; 200 μL i.d. day -5, pristane day 0, p=0.05 additive, p<0.05 maximum): significant difference
arthritis score / preventive effect, undecane day +5 compared with day -10 or day -5 (DA rats [13]; 200 μL i.d., pristane day 0): slightly higher score; also recorded: did not show as significant a preventive effect as at day −10 or at day −5
effect on active arthritis in PIA rat model (DA rats [10]): effective against active arthritis
